Data set [1] deals with CHO cells transfected with ABA-inducible luciferase constructs. Description: ABA-inducible luciferase assay. Format: cell-based. The note with it: 10 μM (mixture 10 μM each), 24 hours.
Data set [2] is described as follows: ABA-Fe reactivity and selectivity towards Fe^2+ (HPLC). Format: physicochemical. The note with it: 37° C., one hour. The method, then:
ABA-Fe reactivity and selectivity towards Fe^2+: 100 μM ABA-Fe with 1 mM Fe^2+ (in 50% HEPES/DMSO buffer, pH=7.4), and 100 μM ABA-Fe with 1 mM Fe^3+ (in 50% HEPES/DMSO buffer, pH=7.4) were incubated at 37° C. for one hour before HPLC detection. The percentages for molecule cleavage were quantified by the peak area of ABA out of the total peak area.
(§1) HPLC chromatograms were acquired using an ULTIMATE 3000 LC System (Thermo Fisher Scientific, Waltham, Mass.) with ACCLAIM 120 Å, C18, 3 μm analytical (4.6×100 mm) column (Thermo Fisher Scientific, Waltham, Mass.). Chromatographic conditions: eluent A: 0.1% v/v TFA in water; eluent B: 0.1% v/v TFA in acetonitrile. ABA in ethanol or ABA-HP in DMSO was eluted at a flow rate of 0.750 ml/min monitored at a wavelength of 260 nm. 0-12 min (linear): 95% A, 5% B to 5% A, 95% B; 12-15 min: 5% A, 95% B; 15-17 min (linear): 5% A, 95% B to 95% A, 5% B. Generation of ABA was quantified by the peak area of ABA out of the total peak area.

Data set [3] is described as follows: Chemical stability of ABA-Fe molecules (HPLC). The data set is classed as physicochemical. The following applies: 100 μM, 50% HEPES/DMSO pH 7.4, 37° C., one hour. Here is the method: Chemical stability of ABA-Fe molecules: 100 μM ABA-Fe (in 50% HEPES/DMSO buffer, pH=7.4) was incubated at 37° C. for one hour before HPLC detection. The percentages for molecule cleavage were quantified by the peak area of ABA out of the total peak area.
as §1

In data set [4] the test system is HEK 293 EGFP reporter cells. Description: Cell stability of ABA-Fe molecules. Format: cell-based. Here is the method:
Mammalian Cell Culture: HEK 293 EGFP reporter cells were cultured in Dulbecco's modified Eagle's medium (DMEM, GIBCO, Life Technologies, Carlsbad, Calif.) with 10% Fetal Bovine Serum (FBS, GIBCO, Life Technologies, Carlsbad, Calif.), 1× […] (100× from GIBCO, Life Technologies, Carlsbad, Calif.), and 1× Penicillin/Streptomycin (Pen/Strep, 100× from GIBCO, Life Technologies, Carlsbad, Calif.). Cells were plated with the starting concentration of 200,000 cells per well in a 24-well plate (Greiner Bio-One GmbH; Frickenhausen, Germany) for a day, and then were treated with either 10 μM of ABA-Fe and 20 μM of DFO, 10 μM of ABA-Fe only, or 10 μM of ABA-Fe and 100 μM of Fe^2+ aqueous solution.
Imagines for green fluorescence were taken for living cells every two hours after adding in those molecules by microscopy illumination system (Axio Observer; Carl Zeiss AG, Oberkochen, Germany). Each type of the experiment was carried out as duplex.

Excerpt for transfected cells: A concern of using UV-triggered reactions in cells is phototoxicity.

For “dimethoxynitrosobenzaldehyde [DMNB-derived photoproduct]”, the toxicity result in the data set on transfected cells is listed as “does not cause observable toxicity”.

For `CC1=CC(=O)CC(C)(C)C1(O)/C=C/C(C)=C/C(=O)O` (single isomer, unassigned) [2-trans isomer], the “induced luciferase expression (activity of ABA isomers)” value in data set [1] is “reduced activity”.

Take `CC1=CC(=O)CC(C)(C)[C@@]1(O)/C=C/C(C)=C\C(=O)ONC(C)c1ccccc1` (stereo partly drawn) [Compound 8]: in data set [2] (100 μM with 1 mM Fe^2+ or Fe^3+), the “selectivity towards Fe^2+ vs Fe^3+” value is “exhibits selectivity”. For the same molecule, the “reactivity (cleavage) towards Fe^2+” value in data set [2] (100 μM with 1 mM Fe^2+) was “exhibits Fe^2+ reactivity”. In addition, the chemical stability result in data set [3] is given as “chemically stable”. For the same molecule, the stability in cells entry in data set [4] was “stable in cells”.

(Values after patent US10907219B2, “Compositions and methods for controlling cellular function” (STC.UNM, priority 2014, dated 2021).)
